Test results reported in patent US9725445B2, “Cycloalkyl nitrile pyrazolo pyridones as Janus kinase inhibitors” (Merck Sharp & Dohme Corp., priority 2013, dated 2017).

Tests used:
JAK1 = JAK1 (Homo sapiens (Human), UniProt P23458); experiment: Jak biochemical HTRF assay, JAK1; settings: HTRF biochemical assay, recombinant GST-tagged catalytic domain; read-out: JAK1 IC50
JAK2 = JAK2 (Homo sapiens (Human), UniProt O60674); experiment: Jak biochemical HTRF assay, JAK2; settings: HTRF biochemical assay, recombinant GST-tagged catalytic domain; read-out: JAK2 IC50
JAK2, sequence (O60674 849-1124): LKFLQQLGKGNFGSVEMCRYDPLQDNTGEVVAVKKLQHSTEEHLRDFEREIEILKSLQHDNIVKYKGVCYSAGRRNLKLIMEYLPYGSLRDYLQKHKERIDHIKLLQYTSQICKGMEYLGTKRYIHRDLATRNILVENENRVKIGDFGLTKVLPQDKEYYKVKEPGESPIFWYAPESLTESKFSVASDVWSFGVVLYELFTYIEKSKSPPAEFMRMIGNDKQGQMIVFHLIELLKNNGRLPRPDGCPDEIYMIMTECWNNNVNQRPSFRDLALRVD

JAK1, sequence (P23458 875-1153): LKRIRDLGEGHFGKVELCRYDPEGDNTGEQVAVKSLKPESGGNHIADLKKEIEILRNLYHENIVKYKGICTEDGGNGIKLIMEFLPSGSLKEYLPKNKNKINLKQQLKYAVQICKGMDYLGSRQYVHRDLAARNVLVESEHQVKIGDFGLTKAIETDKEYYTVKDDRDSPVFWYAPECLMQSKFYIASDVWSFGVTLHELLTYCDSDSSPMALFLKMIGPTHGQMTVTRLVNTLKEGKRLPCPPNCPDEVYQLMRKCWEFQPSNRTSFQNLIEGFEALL

Structure (SMILES)	IC50 (JAK1) [nM]	IC50 (JAK2) [nM]
N#C[C@H]1CCCC[C@@H]1n1nc(Nc2ccc3c(c2)CN(C2CCCCC2)C3=O)c2c(=O)[nH]ccc21 [Example 15-34, (1S,2S)-2-{3-[(2-cyclohexyl-1-oxo-2,3-dihydro-1H-isoindol-5-yl)amino]-4-oxo-4,5-dihydro-1H-pyrazolo[4,3-c]pyridin-1-yl}cyclohexanecarbonitrile]	0.082	0.62
CC(C)(O)c1cn(Cc2cccc(Nc3nn([C@H]4CCCC[C@@H]4C#N)c4cc[nH]c(=O)c34)c2)nn1 [Example 3-84, (1S,2S)-2-{3-[(3-{[4-(1-hydroxy-1-methylethyl)-1H-1,2,3-triazol-1-yl]methyl}phenyl)amino]-4-oxo-4,5-dihydro-1H-pyrazolo[4,3-c]pyridin-1-yl}cyclohexanecarbonitrile]	0.52	2.6
N#C[C@H]1CCCC[C@@H]1n1nc(Nc2ccc(-c3noc(=O)[nH]3)cc2)c2c(=O)[nH]ccc21 [Example 15-17, (1S,2S)-2-(4-oxo-3-{[4-(5-oxo-4,5-dihydro-1,2,4-oxadiazol-3-yl)phenyl]amino}-4,5-dihydro-1H-pyrazolo[4,3-c]pyridin-1-yl)cyclohexanecarbonitrile]	0.17	2.9
CCNC(c1ccc(Nc2nn([C@H]3CCC[C@@H]3C#N)c3cc[nH]c(=O)c23)cc1)C(F)(F)F (single isomer, unassigned) [Example 3-114, (1S,2S)-2-[3-({4-[(1S or 1R)-1-(ethylamino)-2,2,2-trifluoroethyl]phenyl}amino)-4-oxo-4,5-dihydro-1H-pyrazolo[4,3-c]pyridin-1-yl]cyclopentanecarbonitrile]	0.19	0.28
CC(C)S(=O)(=O)c1ccc(Nc2nn([C@H]3CCC[C@@H]3C#N)c3cc[nH]c(=O)c23)cc1 [Example 3-105, (1S,2S)-2-[3-({4-[(1-methylethyl)sulfonyl]phenyl}amino)-4-oxo-4,5-dihydro-1H-pyrazolo[4,3-c]pyridin-1-yl]cyclopentanecarbonitrile]	0.11	0.4
CS(=O)(=O)c1ccc(Nc2nn([C@H]3CCCC[C@@H]3C#N)c3cc[nH]c(=O)c23)cc1 [Example 3-5, (1S,2S)-2-(3-{[4-(methylsulfonyl)phenyl]amino}-4-oxo-4,5-dihydro-1H-pyrazolo[4,3-c]pyridin-1-yl)cyclohexanecarbonitrile]	0.12	0.83
CC(C)(C)[S@+]([O-])N[C@H](c1cccc(Nc2nn([C@H]3CCCC[C@@H]3C#N)c3cc[nH]c(=O)c23)c1)C(F)(F)F [Example 3-42, N-{(1R)-1-[3-({1-[(1S,2S)-2-cyanocyclohexyl]-4-oxo-4,5-dihydro-1H-pyrazolo[4,3-c]pyridin-3-yl}amino)phenyl]-2,2,2-trifluoroethyl}-2-methylpropane-2-sulfinamide]	0.46	13
N#C[C@H]1C[C@H](O)CC[C@@H]1n1nc(Nc2ccc(Cl)cc2)c2c(=O)[nH]ccc21 [Example 3-90, (1S,2S,5R)-2-(3-((4-chlorophenyl)amino)-4-oxo-4,5-dihydro-1H-pyrazolo[4,3-c]pyridin-1-yl)-5-hydroxycyclohexanecarbonitrile]	0.28	7.3
N#C[C@H]1CCCC[C@@H]1n1nc(Nc2ccc(Cn3nccn3)cc2)c2c(=O)[nH]ccc21 [Example 3-45, (1S,2S)-2-(4-oxo-3-{[4-(2H-1,2,3-triazol-2-ylmethyl)phenyl]amino}-4,5-dihydro-1H-pyrazolo[4,3-c]pyridin-1-yl)cyclohexanecarbonitrile]	0.37	0.42
C[C@@H](NCC(F)(F)F)c1ccc(Nc2nn([C@H]3CCCC[C@@H]3C#N)c3cc[nH]c(=O)c23)cc1 [Example 3-66, (1S,2S)-2-{4-oxo-3-[(4-{(1R)-1-[(2,2,2-trifluoroethyl)amino]ethyl}phenyl)amino]-4,5-dihydro-1H-pyrazolo[4,3-c]pyridin-1-yl}cyclohexanecarbonitrile]	0.2	0.32
N#C[C@@H]1CCCC[C@H]1n1nc(Nc2ccnc(F)c2)c2c(=O)[nH]ccc21 [Example 3-1, (1R,2R)-2-{3-[(2-Fluoropyridin-4-yl)amino]-4-oxo-4,5-dihydro-1H-pyrazolo[4,3-c]pyridin-1-yl}cyclohexanecarbonitrile]	18	97
N#C[C@H]1CCCC[C@@H]1n1nc(Nc2ccc([C@H](N)C(F)(F)F)cc2)c2c(=O)[nH]ccc21 [Example 7-4, (1S,2S)-2-[3-({4-[(1S)-1-amino-2,2,2-trifluoroethyl]phenyl}amino)-4-oxo-4,5-dihydro-1H-pyrazolo[4,3-c]pyridin-1-yl]cyclohexanecarbonitrile]	0.11	0.41
N#C[C@H]1CCCC[C@@H]1n1nc(Nc2ccc(Cn3ccnn3)cc2)c2c(=O)[nH]ccc21 [Example 3-46, (1S,2S)-2-(4-oxo-3-{[4-(1H-1,2,3-triazol-1-ylmethyl)phenyl]amino}-4,5-dihydro-1H-pyrazolo[4,3-c]pyridin-1-yl)cyclohexanecarbonitrile]	0.095	0.34
N#C[C@H]1CCCC[C@@H]1n1nc(Nc2ccc(S(=O)(=O)NCc3ccccc3)cc2)c2c(=O)[nH]ccc21 [Example 3-19, N-benzyl-4-({1-[(1S,2S)-2-cyanocyclohexyl]-4-oxo-4,5-dihydro-1H-pyrazolo[4,3-c]pyridin-3-yl}amino)benzenesulfonamide]	0.21	1.2
N#C[C@H]1CCCC[C@@H]1n1nc(Nc2ccc(CNCC(F)(F)F)cc2)c2c(=O)[nH]ccc21 [Example 3-57, (1S,2S)-2-{4-oxo-3-[(4-{[(2,2,2-trifluoroethyl)amino]methyl}phenyl)amino]-4,5-dihydro-1H-pyrazolo[4,3-c]pyridin-1-yl}cyclohexanecarbonitrile]	0.2	0.53
CCN1Cc2cc(Nc3nn([C@H]4CCCC[C@@H]4C#N)c4cc[nH]c(=O)c34)ccc2S1(=O)=O [Example 3-60, (1S,2S)-2-{3-[(2-ethyl-1,1-dioxido-2,3-dihydro-1,2-benzisothiazol-5-yl)amino]-4-oxo-4,5-dihydro-1H-pyrazolo[4,3-c]pyridin-1-yl}cyclohexanecarbonitrile]	0.044	0.41
CC(O)(c1ccc(Nc2nn([C@H]3CCCC[C@@H]3C#N)c3cc[nH]c(=O)c23)cc1)C(F)(F)F (single isomer, unassigned) [Example 15-11, (1S,2S)-2-[4-oxo-3-({4-[(1R or 1S)-2,2,2-trifluoro-1-hydroxy-1-methylethyl]phenyl}amino)-4,5-dihydro-1H-pyrazolo[4,3-c]pyridin-1-yl]cyclohexanecarbonitrile]	0.13	0.84
CC(C)(C)OC(=O)C(C)(C)N1Cc2cc(Nc3nn([C@H]4CCCC[C@@H]4C#N)c4cc[nH]c(=O)c34)ccc2S1(=O)=O [Example 3-152, tert-butyl 2-[5-({1-[(1S,2S)-2-cyanocyclohexyl]-4-oxo-4,5-dihydro-1H-pyrazolo[4,3-c]pyridin-3-yl}amino)-1,1-dioxido-1,2-benzisothiazol-2(3H)-yl]-2-methylpropanoate]	0.1	0.77
N#C[C@H]1CCCC[C@@H]1n1nc(Nc2ccc([C@H]3C[C@H]4CC[C@@H](C3)N4)cc2)c2c(=O)[nH]ccc21 [Example 20-2]	0.39	0.39
N#C[C@H]1C[C@H](N2CCC2)CC[C@@H]1n1nc(Nc2ccc(OC(F)(F)F)cc2)c2c(=O)[nH]ccc21 [Example 5-23, (1S,2S,5R)-5-(azetidin-1-yl)-2-(4-oxo-3-((4-(trifluoromethoxy)phenyl)amino)-4,5-dihydro-1H-pyrazolo[4,3-c]pyridin-1-yl)cyclohexanecarbonitrile]	0.88	31
N#C[C@H]1CCC[C@@H]1n1nc(Nc2ccc(C(N)C(F)(F)F)cc2)c2c(=O)[nH]ccc21 (single isomer, unassigned) [Example 3-136, (1S,2S)-2-[3-({4-[(1R or 1S)-1-amino-2,2,2-trifluoroethyl]phenyl}amino)-4-oxo-4,5-dihydro-1H-pyrazolo[4,3-c]pyridin-1-yl]cyclopentanecarbonitrile]	0.28	0.7
CC(C)(C)OC(=O)CCN1Cc2cc(Nc3nn([C@H]4CCCC[C@@H]4C#N)c4cc[nH]c(=O)c34)ccc2S1(=O)=O [Example 3-150, tert-butyl 3-[5-({1-[(1S,2S)-2-cyanocyclohexyl]-4-oxo-4,5-dihydro-1H-pyrazolo[4,3-c]pyridin-3-yl}amino)-1,1-dioxido-1,2-benzisothiazol-2(3H)-yl]propanoate]	0.066	0.55
Cc1cc(Nc2nn([C@H]3CCCC[C@@H]3C#N)c3cc[nH]c(=O)c23)ccc1C(=O)N1CCCC1 [Example 3-27, (1S,2S)-2-(3-{[3-methyl-4-(pyrrolidin-1-ylcarbonyl)phenyl]amino}-4-oxo-4,5-dihydro-1H-pyrazolo[4,3-c]pyridin-1-yl)cyclohexanecarbonitrile]	0.13	0.2
N#C[C@H]1CCCC[C@@H]1n1nc(Nc2ccc(-c3ncon3)cc2)c2c(=O)[nH]ccc21 [Example 15-3, (1S,2S)-2-(3-{[4-(1,2,4-oxadiazol-3-yl)phenyl]amino}-4-oxo-4,5-dihydro-1H-pyrazolo[4,3-c]pyridin-1-yl)cyclohexanecarbonitrile]	0.51	3.6
COC(C)(c1ccc(Nc2nn([C@H]3CCCC[C@@H]3C#N)c3cc[nH]c(=O)c23)cc1)C(F)(F)F (single isomer, unassigned) [Example 3-125, (1S,2S)-2-(4-oxo-3-((4-((R or S)-1,1,1-trifluoro-2-methoxypropan-2-yl)phenyl)amino)-4,5-dihydro-1H-pyrazolo[4,3-c]pyridin-1-yl)cyclohexanecarbonitrile]	0.32	0.86
N#C[C@H]1CCCC[C@@H]1n1nc(Nc2ccnc(F)c2)c2c(=O)[nH]ccc21 [Example 3-2, (1S,2S)-2-{3-[(2-fluoropyridin-4-yl)amino]-4-oxo-4,5-dihydro-1H-pyrazolo[4,3-c]pyridin-1-yl}cyclohexanecarbonitrile]	0.4	5.4
